Assay: xn = mol fraction of the nth substance listed
Details: for surface tension liquid-gas: 293 K, Pendant drop shape; for viscosity / speed of sound / mass density: 102 kPa, Liquid; for viscosity: Concentric cylinders viscometry; for speed of sound: Single path-length method; for mass density: Vibrating tube method

CCCCCCCCCCCCCCCC [hexadecane] + CC1CCCCC1
Details	surface tension liquid-gas [mN/m]
x2 = 0.1018	26.8
x2 = 0.2	26.7
x2 = 0.3	26.4
x2 = 0.4004	26.2
x2 = 0.4999	26
x2 = 0.6	25.5
x2 = 0.7	25.2
x2 = 0.8	24.7
x2 = 0.9	24.3

Details	mass density [kg/m3]	speed of sound [m/s]	viscosity [mPa·s]
293.15 K, x2 = 0.1018	773	1350.5	3.14
293.15 K, x2 = 0.2	772.68	1343.5	2.83
293.15 K, x2 = 0.3	772.21	1334.5	2.54
293.15 K, x2 = 0.4004	771.85	1325.6	2.24
293.15 K, x2 = 0.4999	771.43	1316.2	1.96
293.15 K, x2 = 0.6	770.99	1303.5	1.68
293.15 K, x2 = 0.7	770.52	1289.9	1.42
293.15 K, x2 = 0.8	770.06	1274.4	1.174
293.15 K, x2 = 0.9	769.64	1256.8	0.943
298.15 K, x2 = 0.1018	769.51	1331.5	2.81
298.15 K, x2 = 0.2	769.17	1324.6	2.54
298.15 K, x2 = 0.3	768.68	1315.4	2.29
298.15 K, x2 = 0.4004	768.28	1306.5	2.03
298.15 K, x2 = 0.4999	767.82	1297.4	1.79
298.15 K, x2 = 0.6	767.29	1284.3	1.54
298.15 K, x2 = 0.7	766.75	1270.5	1.31
298.15 K, x2 = 0.8	766.16	1254.1	1.084
298.15 K, x2 = 0.9	765.56	1236	0.892
303.15 K, x2 = 0.1018	766.03	1312.7	2.52
303.15 K, x2 = 0.2	765.67	1306	2.29
303.15 K, x2 = 0.3	765.15	1296.5	2.08
303.15 K, x2 = 0.4004	764.7	1287.5	1.85
303.15 K, x2 = 0.4999	764.21	1278.4	1.65
303.15 K, x2 = 0.6	763.6	1265	1.43
303.15 K, x2 = 0.7	762.96	1250.9	1.22
303.15 K, x2 = 0.8	762.24	1233.9	1.012
303.15 K, x2 = 0.9	761.47	1215.2	0.82
313.15 K, x2 = 0.1018	759.08	1275.9	2.06
313.15 K, x2 = 0.2	758.66	1269.1	1.89
313.15 K, x2 = 0.3	758.08	1259.4	1.72
313.15 K, x2 = 0.4004	757.54	1250.2	1.55
313.15 K, x2 = 0.4999	756.95	1240.7	1.38
313.15 K, x2 = 0.6	756.18	1226.9	1.2
313.15 K, x2 = 0.7	755.37	1212.1	1.03
313.15 K, x2 = 0.8	754.38	1194.1	0.906
313.15 K, x2 = 0.9	753.24	1174.1	0.739
323.15 K, x2 = 0.1018	752.12	1239.9	1.72
323.15 K, x2 = 0.2	751.64	1233	1.58
323.15 K, x2 = 0.3	751	1223	1.45
323.15 K, x2 = 0.4004	750.36	1213.5	1.31
323.15 K, x2 = 0.4999	749.66	1203.7	1.2
323.15 K, x2 = 0.6	748.73	1189.3	1.05
323.15 K, x2 = 0.7	747.73	1173.8	0.91
323.15 K, x2 = 0.8	746.47	1154.9	0.768
323.15 K, x2 = 0.9	744.96	1133.7	0.629
333.15 K, x2 = 0.1018	745.15	1204.9	1.46
333.15 K, x2 = 0.2	744.61	1197.7	1.35
333.15 K, x2 = 0.3	743.89	1187.7	1.24
333.15 K, x2 = 0.4004	743.16	1177.8	1.16
333.15 K, x2 = 0.4999	742.34	1167.2	1.04
333.15 K, x2 = 0.6	741.25	1152.3	0.924
333.15 K, x2 = 0.7	740.03	1136	0.801
333.15 K, x2 = 0.8	738.5	1116.2	0.68
333.15 K, x2 = 0.9	736.61	1094.2	0.558

CC1CCCCC1 [methylcyclohexane] + CCCCCCCCCCCC
Details	surface tension liquid-gas [mN/m]
x1 = 0.1	24.86
x1 = 0.2001	24.84
x1 = 0.3	24.76
x1 = 0.4001	24.73
x1 = 0.5	24.5
x1 = 0.5999	24.34
x1 = 0.7	24.25
x1 = 0.7999	24.11
x1 = 0.9	23.95

Details	mass density [kg/m3]	speed of sound [m/s]	viscosity [mPa·s]
293.15 K, x1 = 0.1	749.76	1293.1	1.41
293.15 K, x1 = 0.2001	750.92	1288.3	1.34
293.15 K, x1 = 0.3	752.24	1283.1	1.26
293.15 K, x1 = 0.4001	753.73	1277.5	1.18
293.15 K, x1 = 0.5	755.42	1271.7	1.11
293.15 K, x1 = 0.5999	757.37	1265.3	1.03
293.15 K, x1 = 0.7	759.54	1258.9	0.95
293.15 K, x1 = 0.7999	762.21	1251.8	0.875
293.15 K, x1 = 0.9	765.42	1244.3	0.798
298.15 K, x1 = 0.1	746.11	1273.6	1.29
298.15 K, x1 = 0.2001	747.24	1268.7	1.23
298.15 K, x1 = 0.3	748.53	1263.4	1.16
298.15 K, x1 = 0.4001	749.97	1257.7	1.09
298.15 K, x1 = 0.5	751.63	1251.7	1.04
298.15 K, x1 = 0.5999	753.5	1245	0.968
298.15 K, x1 = 0.7	755.59	1238.2	0.898
298.15 K, x1 = 0.7999	758.17	1230.8	0.828
298.15 K, x1 = 0.9	761.26	1222.7	0.755
303.15 K, x1 = 0.1	742.46	1254.3	1.2
303.15 K, x1 = 0.2001	743.56	1249.3	1.14
303.15 K, x1 = 0.3	744.81	1243.9	1.08
303.15 K, x1 = 0.4001	746.21	1238	1.02
303.15 K, x1 = 0.5	747.8	1231.9	0.959
303.15 K, x1 = 0.5999	749.62	1224.8	0.889
303.15 K, x1 = 0.7	751.64	1217.8	0.826
303.15 K, x1 = 0.7999	754.12	1209.9	0.762
303.15 K, x1 = 0.9	757.08	1201.4	0.696
313.15 K, x1 = 0.1	735.13	1216.3	1.01
313.15 K, x1 = 0.2001	736.17	1211.1	0.965
313.15 K, x1 = 0.3	737.34	1205.4	0.916
313.15 K, x1 = 0.4001	738.65	1199.2	0.871
313.15 K, x1 = 0.5	740.13	1192.9	0.858
313.15 K, x1 = 0.5999	741.83	1185.2	0.8
313.15 K, x1 = 0.7	743.69	1177.6	0.744
313.15 K, x1 = 0.7999	745.98	1169	0.689
313.15 K, x1 = 0.9	748.69	1159.5	0.63
323.15 K, x1 = 0.1	727.76	1178.9	0.892
323.15 K, x1 = 0.2001	728.74	1173.5	0.852
323.15 K, x1 = 0.3	729.83	1167.6	0.813
323.15 K, x1 = 0.4001	731.05	1161.1	0.774
323.15 K, x1 = 0.5	732.41	1154.4	0.732
323.15 K, x1 = 0.5999	733.97	1146.3	0.681
323.15 K, x1 = 0.7	735.69	1138.2	0.634
323.15 K, x1 = 0.7999	737.77	1128.8	0.589
323.15 K, x1 = 0.9	740.22	1118.3	0.538
333.15 K, x1 = 0.1	720.35	1142.5	0.783
333.15 K, x1 = 0.2001	721.26	1137	0.752
333.15 K, x1 = 0.3	722.26	1130.7	0.716
333.15 K, x1 = 0.4001	723.38	1124	0.692
333.15 K, x1 = 0.5	724.63	1116.6	0.641
333.15 K, x1 = 0.5999	726.06	1108.3	0.606
333.15 K, x1 = 0.7	727.61	1099.9	0.564
333.15 K, x1 = 0.7999	729.48	1089.6	0.527
333.15 K, x1 = 0.9	731.68	1078.2	0.48
